In the assay the test system is antibodies directed against the HCV Core, NS3 and NS4 proteins. The assay is described as follows: Vidas anti-HCV antibody immunoenzymatic test (Operating Mode 1) carried out with interfering peptide added. The following applies: for Index: pos indices ≧1. The arrangement: species or system human; key to Index: signal / standard S1 value; index ≥1 positive, <1 negative. The procedure: The disposable tip (SPR®) acts both as a solid phase and as a pipetting system. The surface of the tip is coated with antigens for the detection of antibodies directed against the HCV Core, NS3 and NS4 proteins. In a first step, the sample is diluted, and then suctioned up and down inside the tip. The anti-HCV antibodies present in the sample will bind to the antigens present inside the tip. Washing steps remove the unbound compounds. During the second step, (mouse) anti-human immunoglobulin (anti-IgG) monoclonal IgGs in Fab′ form, conjugated to recombinant alkaline phosphatase, are suctioned up and down inside the tip and will bind to the anti-HCV human Igs from the sample tested, bound to the antigens of the solid phase. Washing steps again remove the unbound compounds. […] The value of the fluorescence signal is proportional to the concentration of the antibody present in the sample. At the end of the test, the results are calculated automatically in the form of an index by the instrument, by dividing the value obtained by the value of the standard S1 brought back to 1 (value stored in the instrument). Thus, a sample of which the index is greater than or equal to 1 is considered to be positive by the immunoenzymatic test (presence of anti-HCV antibodies) and a sample of which the index is less than 1 is considered to be negative (absence of anti-HCV antibodies). In the paragraphs which follow, this HCV-antibody assay procedure will be referred to as “Operating Mode 1”, which corresponds to the assaying of anti-HCV antibodies without interfering peptide.
Several hundred serum samples, negative for HCV infection and originating from the Rhône-Alpes “Centres de Transfusion Sanguine” [Blood Banks], were screened in order to identify the samples which posed an interference problem. To do this, the samples were assayed according to Operating Mode 1 using the Vidas automated device. Only the sera that were positive according to Operating Mode 1 (index ≧1) were selected.
Such a difference between the result of Operating Mode 1 and that of the negative status established by the “Centres de Transfusion Sanguine” [Blood Banks] makes it possible to select the false-positive sera posing an interference problem.
Table 1 gives, for seven sera posing an interference problem and for the positive control C1, the results of assays carried out according to “Operating Mode 1” with or without the presence of the peptide V7E (SEQ ID No 2) or of the peptide Y7E (SEQ ID No 1). These peptides were added at a concentration of 5 μg/ml during the first step of the immunoenzymatic test protocol which corresponds to the dilution of the sample to be tested and the incubation thereof with the antigens present on the solid phase.
Likewise, table 2 gives, for two other sera posing an interference problem and for the positive control, the results of assays carried out according to Operating Mode 1 of the anti-HCV antibody detection protocol, with or without the presence of the peptide E8E (SEQ ID No 4), of the peptide A8E (SEQ ID No 3), or else of the peptide A6M (SEQ ID No 9). These peptides were added at a concentration of 1 μg/ml during the first step of the immunoenzymatic test protocol, which corresponds to the dilution of the sample to be tested, and the incubation thereof with the antigens present on the solid phase.

[1] abbreviates: false-positive serum 295 (sample with interference), peptide 1 μg/ml in first step.
Setting [2] is: false-positive serum F25 (sample with interference), peptide 1 μg/ml in first step.
Setting [3] is: positive control C1 (commercial serum pool), peptide 1 μg/ml in first step.
[4] abbreviates: two sera posing an interference problem, peptide 1 μg/ml.
The mark [5] stands for this setting: false-positive serum 175 1811 (sample with interference), peptide 5 μg/ml in first step.
[6] abbreviates: false-positive serum 284 2408 (sample with interference), peptide 5 μg/ml in first step.
The mark [7] stands for this setting: false-positive serum 498 (sample with interference), peptide 5 μg/ml in first step.
The mark [8] stands for this setting: false-positive serum 801 1409 (sample with interference), peptide 5 μg/ml in first step.
[9] abbreviates: false-positive serum F53 3009 (sample with interference), peptide 5 μg/ml in first step.
Setting [10] is: false-positive serum H48 (sample with interference), peptide 5 μg/ml in first step.
The mark [11] stands for this setting: false-positive serum M43 (sample with interference), peptide 5 μg/ml in first step.
The mark [12] stands for this setting: positive control C1 (commercial serum pool), peptide 5 μg/ml in first step.
Setting [13] is: seven sera posing an interference problem, peptide 5 μg/ml.

Turning to “APYIEKGM (Streptococcus) [A6M, Streptococcus pneumoniae peptide, not according to the invention, used as a negative control, reference compound]”, the Index by setting is: under setting [1], 1.04; under setting [2], 2.90; under setting [3], 3.05. Also, under setting [4], the “sera in which the interference is neutralized” value (“sera” for short) is given as “does not make it possible to neutralize the interference, in any of the sera”.

“ECSQHLPYIE (HCV) [E8E, amino acids 53-54 of HCV NS4A fused to amino acids 1-8 of HCV NS4B]” showed an Index under setting [1] of 0.90, an Index under setting [2] of 0.85 and an Index under setting [3] of 2.92. In addition, the “sera” value under setting [4] is 2/2.

With YSPTHYVPE (staphylococcus) [Y7E], the Index runs as follows: under setting [5], 0.47; under setting [6], 0.86; under setting [7], 0.14; under setting [8], 0.71; under setting [9], 0.32; under setting [10], 0.88. The Index is, setting by setting: under setting [11], 0.17; under setting [12], 3.02. In addition, under setting [13], the “sera” value is on record as “totally neutralize the interference in all the sera”.

Take “AQKRLAPYIE (Streptoccus) [A8E, amino acids 64-73 of Streptococcus pneumoniae ribosomal small subunit methyltransferase H protein]”: the Index is, setting by setting: under setting [1], 0.95; under setting [2], 0.41; under setting [3], 3.02. Moreover, the “sera” value under setting [4] is on record as 2/2.

“VSPTHYVPE (HCV) [V7E, amino acids 218-226 of the NS4B protein of HCV]”: the Index by setting is: under setting [5], 0.49; under setting [6], 1.51; under setting [7], 0.35; under setting [8], 1.04; under setting [9], 0.39; under setting [10], 1.17. Further, the Index is given as 0.42 under setting [11] and 3.06 under setting [12]. Besides, under setting [13], the “sera” value was 4/7.

These data come from patent publication US9606120B2, “Interfering peptides and method for detecting microorganisms” (BIOMÉRIEUX, priority 2012, dated 2017).
